Here are results for one molecule from US12138256B2, “Treatment of cardiopulmonary disorders” (Bayer Aktiengesellschaft, priority 2021, dated 2024).

In this experiment the test system is PAH minipig model. The experiment in a line: Deposited lung dose (absorbing filters) in PAH minipig model and prediction of human dose and duration of effect. Type of experiment: in vivo, Göttingen minipig. The method, then: The anesthetized thromboxane A2 challenged PAH-minipig model (see experimental part C-2.1) is considered to be the most relevant and sensitive model for the prediction of the human minimal effective and effective doses (MED, ED). To determine effective LDs, experiments in minipigs were repeated with the difference that absorbing filters were attached at the end of the tubes to determine the deposited lung dose. […] Assuming a minimal effective ND of 3 μg/kg (5% reduction in PAP) the minimal effective deposited LD is considered as 0.15 μg/kg (see FIG. 1).
The resulting lung deposited doses in the minipig of 0.15, 0.5, 1.5 and 5 μg/kg were multiplied by 60 kg to achieve the lung dose in humans. Thus, the FPD reflecting the PAP reduction for a 60 kg human are calculated to be 9, 30, 90 and 300 μg.
Thus, via a direct up-scaling from minipig, the predictive MED (5% PAP reduction) for a human based on a 60 kg body weight is calculated to be 9 μg LDD, not considering protein binding within the respiratory tract. As a surrogate for unbound concentrations, which are the likely active concentrations in the lung, we considered respective differences in fractions unbound in plasma of minipig and human. This consideration results in a minimum effective lung dose (LD) for a 60 kg participant of 41 μg LDD for the assumed 5% reduction on PAP. Consequently, the predictive minimal human effective dose is in the range from 9 μg LDD to 41 μg LDD based on a 60 kg body weight (see FIG. 2).
This translation was also conducted for effective doses (effective PAP reduction>five up to 35 percent for longer time periods up to the complete observation period of 4 hrs) based on the relative lung deposited doses in minipigs as listed in Table 2.
For DPI products, it is assumed that the fine particle dose (FPD) is basically equivalent to the human lung deposited dose.
With respect to a prediction of the duration of action for human studies comparative example 11 was compared in the PAH minipig model after inhaled application to Ventavis® (=Iloprost, 10 μg/kg nominal dose), which we used as a clinical reference. […] Therefore the duration of action is more than 6 times longer compared to Ventavis in this preclinical animal model.
In order to generate a human dose estimate, experiments in the PAH minipig model for comparative example 11 were repeated with the difference that absorbing filters were attached at the end of the tubes to determine the deposited lung dose. […] The arithmetic mean of the aerosol fraction deposited on the filters is 5% based on all results of the filter experiments, resulting in relative lung deposited doses of about 0.15 μg/kg (3 μg/kg nominal dose), 0.5 μg/kg (10 μg/kg nominal dose), 1.5 μg/kg (30 μg/kg nominal dose) and 5 μg/kg (100 μg/kg nominal dose). Assuming a minimal effective nominal dose of 3 μg/kg for a 5% reduction in PAP and a mean nebulization efficiency of 5%, the minimal effective deposited lung dose is considered as 0.15 μg/kg based on the PAH minipig model. Therefore, for a human patient of 60 kg body weight a minimal effective lung deposited dose of 9-41 μg, depending on whether or not an effect of different protein binding (see table 2.1.5) is postulated. Considering 100 μg/kg as effective dose in the minipig model, 300-1370 μg lung deposited dose is postulated as effective dose, again depending on the consideration of different interspecies protein binding.

[1] abbreviates: minipig 0.15 μg/kg lung deposited (3 μg/kg nominal dose).
[2] abbreviates: minipig 0.50 μg/kg lung deposited (10 μg/kg nominal dose).
Setting [3] is: minipig 1.5 μg/kg lung deposited (30 μg/kg nominal dose).
Where [4] appears, read: minipig 5.0 μg/kg lung deposited (100 μg/kg nominal dose).

For the molecule `O=C(O)c1ccc(CCN(CCc2ccccc2OCc2ccc(-c3ccc(C(F)(F)F)cc3)cc2Cl)[C@H]2CCCc3nc(C(=O)O)ccc32)cc1` [comparative example 11, (5S)-5-{[2-(4-carboxyphenyl)ethyl][2-(2-{[3-chloro-4′-(trifluoromethyl)[biphenyl]-4-yl]methoxy}phenyl)ethyl]amino}-5,6,7,8-tetrahydroquinoline-2-carboxylic acid], where the note is “5% reduction in PAP, mean nebulization efficiency 5%, minipig”, the “minimal effective deposited lung dose” value is 0.15 µg/kg. Besides, the “minimal effective nominal dose (MED)” value (5% reduction in PAP, nebulized liquid solution, minipig) was 3 µg/kg. Also, the “predictive minimal human effective lung deposited dose” value (60 kg body weight, 5% PAP reduction, without/with protein binding difference) is 9 to 41 µg. Under “60 kg human”, the “effective lung deposited doses in humans expected from minipig data” value was 9 to 1370 µg. Moreover, the “supposed duration of action in humans” value (assumption that duration is comparable between PAH minipig model and humans) is listed as “at least 6 hours”. The “lung deposited dose postulated as effective dose in humans” value (considering 100 μg/kg as effective dose in the minipig model, 60 kg) is 300 to 1370 µg. The “Total lung deposited dose in a 60 kg human, interspecies difference in protein binding considered” value under setting [1] was 41 µg; the “Total lung deposited dose in a 60 kg human, interspecies difference in protein binding considered” value under setting [2] was 137 µg; the “Total lung deposited dose in a 60 kg human, interspecies difference in protein binding considered” value under setting [3] was 410 µg; the “Total lung deposited dose in a 60 kg human, interspecies difference in protein binding considered” value under setting [4] was 1370 µg. Besides, the “Total lung deposited dose in a 60 kg human, interspecies difference in protein binding not considered” value was 9 µg under setting [1], 30 µg under setting [2], 90 µg under setting [3] and 300 µg under setting [4]. The “highest effective dose in the minipig model without systemic side effects (BP reduction)” value (nominal dose, inhaled) is 100 µg/kg.
